Results taken from ChEMBL document CHEMBL3885861, “Open TG-GATES”.

Organism: Rattus norvegicus
Assay: Open TG-GATES - Regimen: Single
Type: toxicity, organism-based, Sprague-Dawley
Parameters: regimen Single, gender Male, age 6 weeks
Settings: in vivo, po, 1000 mg/kg, route gavage, dose level High; for APTT / Bas / Eos / Fbg / Hb / Lym / MCH / MCHC / MCV / Mono / Neu / PT / Plat / RBC / Ret / WBC / Ht: tissue Blood; for KIDNEY_L / KIDNEY_R / KIDNEY_TOTAL: tissue Kidney; for LIVER: tissue Liver; for ALP / ALT / CRE / DBIL / GLC / IP / K / LDH / Na / PL / RALB / TBIL / TC / TG / TP / gamma-GTP / AST / BUN / Ca: tissue Plasma

O=C(O)c1cn(C2CC2)c2cc(N3CCNCC3)c(F)cc2c1=O [CIPROFLOXACIN]
TERMINAL_BW (3 h): 182 g | APTT (3 h): 17 s | Bas (3 h): 0% | Eos (3 h): 0.4% | Fbg (3 h): 215.6 mg/dL | Hb (3 h): 12.9 g/dL | Lym (3 h): 80.4% | MCH (3 h): 21.7 pg | MCHC (3 h): 33.1% | MCV (3 h): 65.5 fL | Mono (3 h): 6.6% | Neu (3 h): 12.6% | PT (3 h): 12.6 s | Plat (3 h): 101.8 x10_4/uL | RBC (3 h): 592.8 x10_4/ul | Ret (3 h): 11.2% | WBC (3 h): 101.3 x10_2/uL | KIDNEY_L (3 h): 0.8 g | KIDNEY_R (3 h): 0.8 g | KIDNEY_TOTAL (3 h): 1.7 g | LIVER (3 h): 8.6 g | ALP (3 h): 791 IU/L | ALT (3 h): 36.8 IU/L | CRE (3 h): 0.5 mg/dL | DBIL (3 h): 0.022 mg/dL | GLC (3 h): 191.2 mg/dL | IP (3 h): 10.3 mg/dL | K (3 h): 4.7 meq/L | LDH (3 h): 132.2 IU/L | Na (3 h): 139 meq/L | PL (3 h): 141 mg/dL | RALB (3 h): 3.8 g/dL | TBIL (3 h): 0.3 mg/dL | TC (3 h): 81.2 mg/dL | TG (3 h): 47 mg/dL | TP (3 h): 5.6 g/dL | gamma-GTP (3 h): 1.4 IU/L | TERMINAL_BW (6 h): 179.7 g | Bas (6 h): 0% | Eos (6 h): 0.8% | Fbg (6 h): 210.4 mg/dL | Hb (6 h): 12.9 g/dL | Ht (6 h): 39.1% | Lym (6 h): 78.2% | MCHC (6 h): 32.9% | MCV (6 h): 67.5 fL | Mono (6 h): 7.6% | Neu (6 h): 13.8% | PT (6 h): 12.5 s | Plat (6 h): 100.8 x10_4/uL | RBC (6 h): 579.8 x10_4/ul | Ret (6 h): 10% | WBC (6 h): 97.6 x10_2/uL | KIDNEY_L (6 h): 0.8 g | KIDNEY_R (6 h): 0.8 g | KIDNEY_TOTAL (6 h): 1.7 g | LIVER (6 h): 7.9 g | ALP (6 h): 904.2 IU/L | AST (6 h): 69.4 IU/L | BUN (6 h): 10 mg/dL | CRE (6 h): 0.5 mg/dL | Ca (6 h): 11.4 mg/dL | DBIL (6 h): 0.052 mg/dL | GLC (6 h): 185.8 mg/dL | IP (6 h): 10.8 mg/dL | K (6 h): 5.3 meq/L | LDH (6 h): 140.4 IU/L | Na (6 h): 138 meq/L | PL (6 h): 137.2 mg/dL | RALB (6 h): 3.7 g/dL | TBIL (6 h): 0.3 mg/dL | TC (6 h): 79.8 mg/dL | TP (6 h): 5.5 g/dL | gamma-GTP (6 h): 1 IU/L | TERMINAL_BW (9 h): 176.2 g | APTT (9 h): 16.9 s | Bas (9 h): 0% | Eos (9 h): 0.8% | Fbg (9 h): 223 mg/dL | Hb (9 h): 13.2 g/dL | Ht (9 h): 39.9% | Lym (9 h): 83.6% | MCH (9 h): 22 pg | MCHC (9 h): 33% | MCV (9 h): 66.5 fL | Mono (9 h): 5.8% | Neu (9 h): 10% | PT (9 h): 11.4 s | Plat (9 h): 104.6 x10_4/uL | RBC (9 h): 601 x10_4/ul | WBC (9 h): 94.6 x10_2/uL | KIDNEY_L (9 h): 0.8 g | KIDNEY_R (9 h): 0.9 g | KIDNEY_TOTAL (9 h): 1.7 g | LIVER (9 h): 7.3 g | ALP (9 h): 763.8 IU/L | AST (9 h): 71.4 IU/L | BUN (9 h): 11 mg/dL | CRE (9 h): 0.5 mg/dL | Ca (9 h): 10.8 mg/dL | DBIL (9 h): 0.08 mg/dL | GLC (9 h): 192.4 mg/dL | IP (9 h): 11 mg/dL | K (9 h): 5.2 meq/L | LDH (9 h): 168.2 IU/L | Na (9 h): 139 meq/L | PL (9 h): 131.4 mg/dL | RALB (9 h): 3.8 g/dL | TBIL (9 h): 0.3 mg/dL | TC (9 h): 78 mg/dL | TG (9 h): 22.2 mg/dL | TP (9 h): 5.6 g/dL | gamma-GTP (9 h): 1.4 IU/L | TERMINAL_BW (24 h): 193.6 g | APTT (24 h): 15.4 s | Bas (24 h): 0% | Eos (24 h): 0.8% | Fbg (24 h): 219.4 mg/dL | Hb (24 h): 13.5 g/dL | Ht (24 h): 40.1% | Lym (24 h): 80% | MCHC (24 h): 33.6% | Mono (24 h): 6.4% | Neu (24 h): 12.6% | PT (24 h): 12.4 s | Plat (24 h): 106.5 x10_4/uL | RBC (24 h): 600.2 x10_4/ul | Ret (24 h): 9.1% | WBC (24 h): 110.9 x10_2/uL | KIDNEY_L (24 h): 0.8 g | KIDNEY_R (24 h): 0.9 g | KIDNEY_TOTAL (24 h): 1.7 g | LIVER (24 h): 8.7 g | ALP (24 h): 1158.6 IU/L | ALT (24 h): 49 IU/L | BUN (24 h): 19.2 mg/dL | CRE (24 h): 0.5 mg/dL | Ca (24 h): 11.3 mg/dL | DBIL (24 h): 0.028 mg/dL | GLC (24 h): 183.8 mg/dL | IP (24 h): 9.9 mg/dL | K (24 h): 4.6 meq/L | LDH (24 h): 177.2 IU/L | Na (24 h): 140 meq/L | PL (24 h): 146.4 mg/dL | RALB (24 h): 4 g/dL | TBIL (24 h): 0.2 mg/dL | TC (24 h): 84 mg/dL | TG (24 h): 51.2 mg/dL | TP (24 h): 6 g/dL | gamma-GTP (24 h): 1.2 IU/L
